Source: US20030124105A1, “PROGRAMMED CELL DEATH GENES AND PROTEINS” (priority 1993, published 2003)

Assays:
HeLa cells = format: cell-based, human
HeLa/crmA cells = settings: CHX 20 μg/ml, TNF-a 5 ng/ml, 24 h, trypan blue dye exclusion, mean ± SEM
Protocol: Dosage response of HeLa and HeLa/crmA cells to TNF-α treatment was tested as follows. Cells were seeded in DMEM plus 10% fetal calf serum in a 24-well plate at a density of 4×10^4 cells per well. After overnight incubation, the cells were washed twice with serum-free DMEM. Drugs were then added to a total volume of 0.2 ml of serum-free DMEM and the cells were incubated for 24 hours. Cells were then trypsinized and dead cells scored on a hemocytometer by trypan blue exclusion (Sigma, St. Louis, Mo.). At least 200 cells were scored per well. Each concentration was tested in duplicate each time.
The effect of crmA expression on TNF-induced apoptosis was tested. […] HeLa cells or HeLa/crmA cells were treated with cycloheximide (CHX) (20 μg/ml, Sigma), TNF-α (5 ng/ml, Sigma), or a combination of both drugs. […] Control HeLa and HeLa/crmA cells were tested for the ability to resist increasing amounts of TNF-α in the presence of 10 μg/ml CHX (FIG. 18). […] The dose response of crmA-expressing HeLa cells to increasing amounts of TNF-α in the presence of 10 μg/ml of CHX was tested.

C[C@@H]1C[C@@H]([C@H](O)CC2CC(=O)NC(=O)C2)C(=O)[C@@H](C)C1 [CHX, cycloheximide]
% dead cells (HeLa cells): 2.9 ± 0.7% | % dead cells (HeLa/crmA cells): 3.8 ± 0.5%
